Laboratory results taken from patent US20180066005A1, “TRANS-RESVERATROL POLYSACCHARIDE, METHOD OF PRODUCING THE SAME, AND COMPOSITION COMPRISING THE SAME” (FAITH CO., LTD., priority 2013, published 2018).

Legend:
NFκB = experiment: Suppression of NFκB expression in epithelial tissue models (quantitative PCR); assay type: cell-based, human; settings: 30 μM, 50 μM and 100 μM, three weeks after addition (FIG. 11)
Description: (§1) An experiment was conducted to confirm the effect of suppressing the expression of NFκB, which is a transcription factor that induces inflammation. Epithelial tissue models were produced using a normal human three-dimensional epithelial tissue model production kit MelanoDerm (MEL-300; Kurabo). RSV was added to the culture media so that the final concentration was 0 μM (Ctrl), 30 μM, 50 μM, and 100 μM, and the tissue models were cultured according to the manual of the kit. RNA in the skin tissue models was collected three weeks after the addition of RSV, and subjected to quantitative PCR analysis to measure the expression level of NFκB.

[1] = tested on: normal human three-dimensional epithelial tissue model MelanoDerm; experiment: Whitening effect: reduction in black areas in epithelial tissue models (MelanoDerm); assay type: cell-based
Description: as §1, with “NFκB. […] Epithelial tissue models were produced using the above kit. RSV was added to the culture media so that the final concentration was 0 μM (Ctrl), 30 μM, 50 μM, and 100 μM, and the tissue models were cultured according to the manual of the kit. Photographic images of the epithelial tissue models were taken three weeks after the addition of RSV. The degree of reduction in black areas due to the addition of RSV was calculated using ImageJ image-analysis software, and the results were graphed. […] Epithelial tissue models were produced in the same manner as in Example 5. RSV, 4 M-RSV, and 3P-RSV were each added so that the final concentration was 50 μM, and the skin tissue models were observed.” for “NFκB.”

3T3 mouse fibroblasts = experiment: Rescue activity from cell death induced by hydrogen peroxide; assay type: cell-based; settings: 10 μM for 3 hours, then hydrogen peroxide 15 μM, culture for 12 hours (FIG. 10)
Description: Subsequently, the cultured cells were fixed with 4% paraformaldehyde and stained with Hoechst. Cells in which aggregation in the cell nucleus was observed were determined to be cell death, and the percentage of cell death (vertical axis in the graph) was calculated.
An experiment was conducted to confirm the trans-resveratrol polysaccharide's rescue activity from cell death. RSV, 4M-RSV, and 3P-RSV were each added to a culture medium of 3T3 mouse fibroblasts so that the final concentration was 10 μM, and the fibroblasts were cultured with 5% carbon dioxide at 37° C. for 3 hours. Subsequently, hydrogen peroxide was added to the culture medium so that the final concentration was 15 μM, thereby inducing cell death.
After culture for 12 hours, cell death was determined in the same manner as in Example 1, and the percentage of cell death was calculated.

[2] = Solubility in water at room temperature; assay type: physicochemical; settings: for solubility in distilled water: allowed to stand at room temperature, turbid or transparent tube (FIG. 7)
Description: FIG. 7 is a photographic image showing trans-resveratrol-3-O-β-D-monoglucoside contained in the fraction showing a single peak detected in FIG. 1 (A), and trans-resveratrol-3-O-β-D-diglucoside contained in the fraction (a) in FIG. 1 (B), after they were dissolved in distilled water and allowed to stand at room temperature.

SMILES: Oc1ccc(/C=C/c2cc(O)cc(O)c2)cc1 [RSV, Trans-resveratrol]
- expression level of NFκB (NFκB): suppressed the expression level of NFκB in the epithelial tissue models in a concentration-dependent manner
- reduction in black areas (whitening effect) ([1]; 30 μM, 50 μM and 100 μM, three weeks after addition, ImageJ (FIG. 12)): reduced black areas in the epithelial tissue models in a concentration-dependent manner

SMILES: OCC1OC(Oc2cc(O)cc(/C=C/c3ccc(OC4OC(CO)C(OC5OC(CO)C(O)C(O)C5O)C(O)C4O)cc3)c2)C(O)C(O)C1O [4M-RSV, trans-resveratrol-O-β-D-3-monoglucoside-4′-diglycoside]
- rescue activity from cell death induced by hydrogen peroxide (percentage of cell death) (3T3 mouse fibroblasts): cell death almost equal to that of the case in which hydrogen peroxide was not added (Ctrl)
- degree of reduction in black areas per molecular unit of RSV (whitening effect) ([1]; 50 μM (FIG. 13)): significantly excellent whitening effect

SMILES: OC[C@H]1O[C@@H](Oc2cc(O)cc(/C=C/c3ccc(O)cc3)c2)[C@H](O)[C@@H](O)[C@@H]1O [trans-resveratrol-3-O-β-D-monoglucoside, trans-Resveratrol-3-O-β-D-glucopyranoside, reference compound]
- solubility in distilled water [2]: not dissolved in distilled water at room temperature

SMILES: OCC1OC(OC2C(CO)OC(Oc3cc(O)cc(/C=C/c4ccc(O)cc4)c3)C(O)C2O)C(O)C(O)C1O [trans-resveratrol-3-O-β-D-diglucoside, trans-Resveratrol-3-O-β-D-diglucoside]
- solubility in distilled water [2]: easily dissolved in distilled water at room temperature
- water solubility at ordinary temperature ([2]; ordinary temperature, concluded from ethyl acetate/water partition and HPLC fractions): could acquire water solubility at ordinary temperature
